Test results published in article PMC9267059, “Selective Inhibition of Murine Cytomegalovirus Viral Gene Expression by the Antiviral Peptide TAT-I24” (International Journal of Molecular Sciences, 2022).

What was measured:
[1] = tested on: host-cell transcripts in NIH/3T3 cells infected with UV-inactivated MCMV; assay: Host-cell transcript levels in cells infected with UV-irradiated MCMV; conditions: UV-inactivated MCMV MOI 2.5, 10 µM, 2 h post-infection, three independent experiments
[2] = tested on: mouse cytomegalovirus (CMV); conditions: cited from earlier work
[3] = tested on: MCMV viral gene expression; assay: MCMV viral gene transcript levels by quantitative PCR relative to Gapdh; format: cell-based, murine cytomegalovirus; conditions: for ie1 transcript levels, comparison of peptides: NIH/3T3, MCMV MOI 1, 2 h post-infection
Protocol: NIH/3T3 fibroblasts were infected with MCMV expressing luciferase at low MOI (MOI 1) with the aid of centrifugal enhancement. Infections were performed either in the absence or presence of 10 µM TAT-I24. Cells were lysed after 30 min or 2-, 4-, 8- and 24-h post-infection. Total RNA was isolated and treated with DNase I to remove viral DNA before synthesis of the cDNA. Levels of viral transcripts were then analyzed by quantitative PCR and normalized to mRNA levels of the glyceraldehyde-3-phosphate dehydrogenase (Gapdh) housekeeping gene.
NIH/3T3 cells were seeded at a density of 8 × 10^4 cells/well of a 24-well plate and allowed to attach overnight. On the next day, MCMV strain delm157-luc rep was adsorbed to cells (MOI 1) in the absence or presence of 10 µM TAT-I24 and centrifuged twice at 800× g for 15 min. Cells were then kept at 37 °C and lysed after the indicated time-points.

[4] = tested on: host-cell transcripts in NIH/3T3 cells infected with MCMV; assay: Host-cell transcript levels by quantitative PCR in MCMV-infected NIH/3T3 cells; format: cell-based; conditions: for Ccl5 expression, comparison of peptides / Ccl7 expression, comparison of peptides / Ifit1 expression, comparison of peptides: MCMV MOI 1, 2 h post-infection, four independent experiments
[5] = tested on: NIH/3T3 cells; conditions: 20 µM; cited from earlier work
Source text: (§1) This strain was also used in the present investigation. […] However, with increasing concentrations of TAT-I24, the cytopathic effects caused by the virus infection were inhibited (Figure 1A).

[6] = tested on: MCMV viral DNA; assay: MCMV viral DNA determined by ie1 PCR from RNA extracts; format: cell-based, murine cytomegalovirus
Protocol: The levels of viral DNA in the RNA extracts were also determined by PCR using the ie1 primer pair. In peptide-treated cells, the amount of viral DNA was about 60% compared to untreated cells. The amount of viral DNA declined in both settings between 2 and 8 h. […] This is in accordance with our earlier study using detection of the luciferase gene of MCMV strain delm157-luc rep.

[7] = tested on: respiratory syncytial virus (RSV); conditions: cited from earlier work
Source text: (§2) We have described the novel antiviral peptide TAT-I24, a fusion of the 9-mer peptide I24 and the TAT peptide, which exerts broad-spectrum activity against several double-stranded DNA viruses. […] The antiv ...

[8] = tested on: herpes simplex virus; conditions: cited from earlier work
Source text: as §2

[9] = tested on: some adenoviruses; conditions: cited from earlier work
Source text: as §2

[10] = tested on: human immunodeficiency virus-1 (HIV-1); conditions: cited from earlier work
Source text: as §2

[11] = tested on: vaccinia virus; conditions: cited from earlier work
Source text: as §2

[12] = tested on: SV40 polyomavirus; conditions: cited from earlier work
Source text: as §2

[13] = tested on: non-replicating baculovirus; conditions: mammalian cells; cited from earlier work
Source text: as §2

[14] = tested on: human cytomegalovirus (CMV); conditions: cited from earlier work
Source text: as §2

[15] = tested on: NIH/3T3 cells; assay: Cell viability assay (Cell Titer Glo 2.0); format: cell-based; conditions: 10 µM, 48 h, Cell Titer Glo 2.0 luminescence, eight replicates per group
Protocol: NIH/3T3 cells were grown in CO2-independent medium supplemented with 10% fetal calf serum, 2 mM glutamine and 1% antibiotic-antimycotic (ThermoFisher; Darmstadt, Germany) and cultivated in a humidified atmosphere at 37 °C and passaged once a week. For determination of cell viability, NIH/3T3 cells were seeded at a density of 2 × 10^4 cells/well of a 96-well plate and treated with vehicle (DMSO) or 10 µM TAT-I24. After 48 h, cells were lysed using Cell Titer Glo 2.0 reagent (Promega; Mannheim, Germany) and luminescence recorded using a GloMax Multi instrument (Promega; Mannheim, Germany).

[16] = tested on: MCMV; assay: Crystal violet staining of MCMV-infected NIH/3T3 cells (cytopathic effects); format: cell-based, murine cytomegalovirus
Protocol: as §1, with “1A). […] For all further investigations, 10 µM of TAT-I24 was therefore chosen to ensure efficient inhibition of MCMV infection.” for “1A).”
NIH/3T3 cells were seeded at a density of 2 × 10^4 cells/well of a 96-well plate and allowed to attach overnight. On the next day, cells were treated with increasing concentrations of TAT-I24 and infected with MCMV strain delm157-luc rep with centrifugal enhancement twice at 800× g for 15 min. After 48 h, cells were fixed with 4% formaldehyde and stained with 1% crystal violet solution for 30 min at room temperature followed by three times washing with water. Microscopic examination was performed using a Live Cell Video Microscope (Leica Microsystems; Wetzlar, Germany).

[17] = tested on: double-stranded DNA; conditions: cited from earlier work
Protocol: To determine whether reduction of host-gene expression early after MCMV infection is related to the ability of the peptide to bind DNA, variants of TAT-I24 were generated with modifications of the TAT fusion partner (Figure 5A). The peptides were tested for their potency in inhibiting MCMV replication and their binding to DNA. […] Inhibition is independent of whether these are immediate-early, early or late genes, as they were all reduced to a similar extent, thereby excluding a specific effect of the peptide on a particular viral gene.

[18] = tested on: BrdU-labelled MCMV DNA; assay: Staining of BrdU-labelled MCMV DNA in NIH/3T3 cells; format: cell-based, murine cytomegalovirus
Protocol: When infection of cells is performed with MCMV labelled with bromodeoxyuridine (BrdU), a clear reduction in BrdU-labelled genomes in TAT-I24-treated cells can be observed. It was speculated that this was due to the interaction of the peptide with the viral DNA, leading to the prevention of BrdU-antibody binding. This was further supported by the observation that the incubation of cells with TAT-I24 after fixation and permeabilization led to an impairment of BrdU-staining. As additional support for this concept, BrdU-labelled MCMV was adsorbed to NIH/3T3 cells at 4 °C in the absence or presence of 10 µM TAT-I24. Cells were then washed with ice-cold medium followed by transfer to 37 °C and fixation and permeabilization 30 min post-cold release. In one setting, cells were additionally treated with pepsin for 20 min at 37 °C to degrade the peptide.
NIH/3T3 cells were seeded at a density of 4 × 10^4 cells/well into ibiTreat eight-well chambers (ibidi, Gräfelfing, Germany). Bromodeoxyuridine (BrdU)-labelled virus was adsorbed to cells in the absence or presence of 10 µM TAT-I24 as described before. Pepsin treatment was performed by incubation of cells after fixation, permeabilization and denaturation with Pepsin Reagent, Ready to Use, Antigen Retriever (Merck; Schnelldorf, Germany) for 20 min. Cells were then washed twice with 1xTBE followed by three washes with PBS. […]

[19] = tested on: double-stranded DNA; assay: DNA binding assay (fluorescence reduction of SYBR Gold-stained plasmid DNA); conditions: three independent experiments performed in duplicates
Protocol: Binding of peptides to double-stranded DNA was determined by reduction of fluorescence from SYBR® Gold-stained plasmid DNA as described previously.

[20] = tested on: MCMV; assay: Luciferase assay of MCMV replication (strain delm157-luc rep) in NIH/3T3 cells; format: cell-based, murine cytomegalovirus; conditions: NIH/3T3 cells infected with MCMV, 72 h post-infection, at the concentrations tested, three independent experiments in duplicates
Protocol: NIH/3T3 cells were seeded at a density of 2 × 10^4 cells/well of a 96-well plate and allowed to attach overnight. On the next day, cells were treated with various concentrations of peptides, or cidofovir either alone or in combination with increasing concentrations of TAT-I24 and infected with MCMV strain delm157-luc rep with centrifugal enhancement twice at 800× g for 15 min. After 72 h, cells were lysed and luciferase measured using luciferase assay system (Promega; Mannheim, Germany) using a GloMax Multi instrument (Promega; Mannheim, Germany).
Curve fittings and statistics were calculated using GraphPad Prism 8 (GraphPad Software, San Diego, CA, USA). Bliss synergy scores were calculated using SynergyFinder 2.0 software (https://synergyfinder.fimm.fi (accessed on 25 June 2022)).

[21] = MOI comparison experiment, MOI 1 with 10 µM, 2 h post-infection, two independent experiments
[22] = MCMV MOI 1, 10 µM, 2 h post-infection
[23] = MCMV MOI 1, 10 µM, 4 h post-infection

Sequence: GRKKRRQRRRPPQCLAFYACFC [TAT-I24, antiviral peptide, a fusion of the 9-mer peptide I24 and the TAT peptide]
- Ccl5 transcript levels [1]: significantly reduced
- Ccl7 transcript levels [1]: significantly reduced
- Cxcl10 transcript levels [1]: significantly reduced
- replication of mouse cytomegalovirus (MCMV) [2]: inhibit replication
- reduction of ie1 transcript levels [3, 21]: 90%
- expression of spliced late gene m129/131 ([3]; NIH/3T3, MCMV MOI 1, 10 µM): reduced
- gene expression of M94 (late gene) ([3]; NIH/3T3, MCMV MOI 1, 10 µM): strongly inhibited
- levels of m152 transcripts (early gene) ([3]; NIH/3T3, MCMV MOI 1, 10 µM): strongly reduced
- m169 mRNA levels (early gene) ([3]; NIH/3T3, MCMV MOI 1, 10 µM): strongly reduced
- reduction of ie1 transcript levels compared to untreated cells ([3]; NIH/3T3, MCMV MOI 1, 10 µM, 2 h post-infection, four independent experiments): more than 90%
- ie1 transcript levels, comparison of peptides ([3]; four independent experiments): significant inhibitory effect
- Ccl5 transcript levels ([4]; MCMV MOI 1, 10 µM): reduction
- Gadd45a mRNA levels, untreated vs peptide-treated cells ([4]; MCMV MOI 1, 10 µM): no difference
- Herpud1 transcript levels, untreated vs peptide-treated cells ([4]; MCMV MOI 1, 10 µM): no differences
- Top2a transcript levels ([4]; MCMV MOI 1, 10 µM): no significant effect
- Ccl7 transcript levels [4, 22]: reduced
- Cxcl10 transcript levels [4, 22]: reduced
- Ifit1 transcript levels [4, 22]: significantly reduced
- Nfkbia transcript levels [4, 22]: reduced
- Ccl7 transcript levels [4, 23]: started to increase
- Cxcl10 transcript levels [4, 23]: started to increase
- Nfkbia mRNA levels [4, 23]: comparable between untreated and peptide-treated cells
- Ifit1 mRNA levels ([4]; MCMV MOI 1, 10 µM, after 4 h): also increased in the presence of the peptide
- Ccl5 expression, comparison of peptides [4]: significant reduction
- Ccl7 expression, comparison of peptides [4]: significant reduction
- Ifit1 expression, comparison of peptides [4]: significant reduction
- cell viability [5]: does not affect cell viability
- viral DNA (genome copies by ie1 PCR) [6, 21]: not reflected at the level of viral DNA
- viral DNA after 24 h ([6]; NIH/3T3, MCMV MOI 1, 10 µM, 24 h post-infection): remained at background levels
- amount of viral DNA compared to untreated cells ([6]; NIH/3T3, MCMV MOI 1, 10 µM, ie1 PCR, three independent experiments): about 60%
- inhibition of RSV [7]: Partial inhibition
- replication of herpes simplex virus [8]: inhibit replication
- replication of some adenoviruses [9]: inhibit replication
- inhibition of HIV-1 [10]: Partial inhibition
- replication of vaccinia virus [11]: inhibit replication
- replication of SV40 polyomavirus [12]: inhibit replication
- reporter gene expression from a non-replicating baculovirus [13]: reduction of reporter gene expression
- replication of human cytomegalovirus [14]: inhibit replication
- cytotoxic effect (cell viability assay) [15]: does not exert any cytotoxic effect
- effect on cell attachment and morphology ([16]; 20 µM): some effect on cell attachment and morphology
- cytopathic effects caused by the virus infection ([16]; MCMV MOI 1, 48 h post-infection, increasing concentrations of TAT-I24, crystal violet staining): inhibited
- binding to DNA [17]: binds DNA with high affinity
- BrdU-labelled genomes seen in cells ([18]; 10 µM during adsorption at 4 °C, 30 min post-cold release, no pepsin): almost no BrdU-labelled genomes
- BrdU-antibody staining after post-fixation pepsin treatment ([18]; 10 µM during adsorption, pepsin 20 min at 37 °C after fixation and permeabilization): clear appearance of a punctate pattern

Sequence: RRRPPQCLAFYACFC [TAT-M24, six C-terminal residues of the TAT peptide fused to I24]
- DNA binding (fluorescence reduction of SYBR Gold-stained plasmid DNA) [19]: reduced DNA binding
- antiviral activity (luciferase reporter gene expression) [20]: lack of antiviral activity

Sequence: CLAFYACFC [I24]
- binding to DNA [17]: also binds DNA

Sequence: GRKKRRCLAFYACFC [TAT-M26, six N-terminal amino-acid residues of the TAT peptide fused to I24]
- ie1 transcript levels, comparison of peptides ([3]; four independent experiments): significant inhibitory effect
- Ccl5 expression, comparison of peptides [4]: significant reduction
- Ccl7 expression, comparison of peptides [4]: significant reduction
- Ifit1 expression, comparison of peptides [4]: significant reduction

Sequence: GRKKRRQRRRPPQ [TAT, reference compound]
- replication of mouse cytomegalovirus (MCMV) [2]: partial inhibitory effect
- ie1 transcript levels, comparison of peptides ([3]; four independent experiments): partial reduction
- DNA binding (fluorescence reduction of SYBR Gold-stained plasmid DNA) [19]: partial fluorescence reduction

Sequence: RRRCLAFYACFC [TAT-M25, three amino-terminal arginine residues fused to I24]
- DNA binding (fluorescence reduction of SYBR Gold-stained plasmid DNA) [19]: reduced DNA binding
- antiviral activity (luciferase reporter gene expression) [20]: lack of antiviral activity
